Measured values reported in paper PMC6838110 (Nature Communications, 2019).

Assays:
Format in all cases: cell-based
ATM = target: T1, ATM (Homo sapiens, UniProt Q13315); assay: ATM pSer1981 imaging assay in irradiated HT29 cells; conditions: geometric mean; Supplementary Table 1; read-out: Compound IC50 ATM
T1 construct: ATM (pATM Ser1981) in HT29; endogenous in cells; host or cells: HT-29
Experimental: Following this final incubation, the plates were washed twice using PBS, s ealed with black plate seals and then read on a CellInsight™ imaging platform (Thermo Scientific) with 10x objective. A two-laser setup was used to analyse nuclear staining with Hoechst (405 nm) and secondary antibody staining of pATM (488 nm). […]

ATR = target: T2, ATR (Homo sapiens, UniProt Q13535); assay: ATR (pCHK1 Ser345) imaging assay in 4NQO-treated HT29 cells; conditions: geometric mean; Supplementary Table 1; read-out: Compound IC50 ATR
T2 construct: ATR (pCHK1 Ser345) in HT29; endogenous in cells; host or cells: HT-29
Experimental: HT-29 cells by an imaging-based assay. HT-29 cells were dispensed into 384-well Greiner plates (#781090) to give 6000 cells/well in a total volume of 40 µL cell media and incubated overnight. Test compounds and reference controls were dosed directly into the cell plates using a Labcyte Echo 555 acoustic dispenser. The cell plates were then incubated for 1 hour at 37°C before being dosed with 3 µM of 4NQO using a Labcyte Echo 555 acoustic dispenser. The cells were incubated for a further 1 h our and were then fixed by the addition of 20 µL 3.7% formaldehyde in PBS and incubated for 20 min utes at RT. The plates were subsequently washed on a Bioteck EL406 3x using PBS-T, and then permeabilized with the addition of 20 µL of 0.1% Triton X-100 in PBS for 10 minutes at RT. Following permeabilization, the plates were washed 3x with PBST and incubated with 20 µL of primary antibody (1:250 anti-Chk1 pSer345 in PBS-T) overnight at 4°C. The next day, the plates were washed 3x with PBS and incubated with 20 µL of secondary antibody (1:500 AlexaFluor 488 goat anti-rabbit IgG and 1:5000 Hoechst stock solution [10 mg/mL ] in antibody buffer) for 2 hours at RT. Following this final incubation, the plates were washed 3x with PBS, sealed with black plate seals and then read on a CellInsight imaging platform (Thermo Scientific) with 10x objective. A two -laser setup was used to analyse nuclear staining with Hoechst (405 nm) and secondary antibody staining of pChk1 (488 nm). […]

PI3Kγ = target: T3, PI3Kγ (Mus musculus, UniProt Q9JHG7); assay: PI3K isoform assay, pAKT Thr308 ELISA in RAW-264 cells; conditions: geometric mean; Supplementary Table 1; read-out: Compound IC50 PI3K (third PI3K line)
T3 construct: RAW-264 (PI3Kγ); endogenous in cells; host or cells: RAW-264
T3 sequence (Q9JHG7 whole entry, canonical isoform): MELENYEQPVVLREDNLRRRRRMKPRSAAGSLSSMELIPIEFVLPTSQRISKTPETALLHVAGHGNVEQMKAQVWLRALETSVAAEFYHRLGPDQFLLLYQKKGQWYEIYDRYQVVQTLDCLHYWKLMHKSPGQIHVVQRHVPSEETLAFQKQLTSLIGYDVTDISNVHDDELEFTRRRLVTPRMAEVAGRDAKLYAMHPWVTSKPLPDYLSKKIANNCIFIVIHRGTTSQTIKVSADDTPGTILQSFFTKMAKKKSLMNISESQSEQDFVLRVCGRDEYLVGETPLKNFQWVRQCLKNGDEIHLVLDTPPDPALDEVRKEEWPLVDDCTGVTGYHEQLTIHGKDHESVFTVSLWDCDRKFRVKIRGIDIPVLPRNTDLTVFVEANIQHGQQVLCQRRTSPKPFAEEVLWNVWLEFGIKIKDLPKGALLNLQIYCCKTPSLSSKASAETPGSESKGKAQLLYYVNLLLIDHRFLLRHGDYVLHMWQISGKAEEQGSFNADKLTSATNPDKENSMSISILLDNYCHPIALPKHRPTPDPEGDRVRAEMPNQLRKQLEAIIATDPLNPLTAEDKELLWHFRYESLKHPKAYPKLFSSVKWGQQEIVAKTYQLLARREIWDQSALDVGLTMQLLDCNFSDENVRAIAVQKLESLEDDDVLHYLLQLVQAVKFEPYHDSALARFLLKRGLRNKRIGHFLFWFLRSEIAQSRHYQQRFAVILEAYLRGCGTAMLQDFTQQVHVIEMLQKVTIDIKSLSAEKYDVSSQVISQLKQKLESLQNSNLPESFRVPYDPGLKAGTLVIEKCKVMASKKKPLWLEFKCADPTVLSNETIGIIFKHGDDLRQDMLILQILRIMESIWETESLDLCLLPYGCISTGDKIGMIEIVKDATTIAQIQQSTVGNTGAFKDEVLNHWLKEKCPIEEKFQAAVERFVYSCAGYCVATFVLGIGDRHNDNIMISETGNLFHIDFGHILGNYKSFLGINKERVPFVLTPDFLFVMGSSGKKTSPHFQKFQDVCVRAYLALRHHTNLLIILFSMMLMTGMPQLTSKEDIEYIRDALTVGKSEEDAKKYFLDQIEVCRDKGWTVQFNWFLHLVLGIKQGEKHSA
Experimental: (§1) BT474 (PI3Kα), MDA-MB-468 (PI3Kβ), RAW-264 (PI3Kγ) and JEKO-1 (PI3Kδ). Levels of phospho-AKT Thr308, a downstream target for PI3K, was used as a marker of PI3K […]
RAW-264 and JEKO-1 cells were seeded directly into 384-well plates containing compounds (1 x 10^5 cells/well) and incubated for 1 hour. Compounds were added to cells/plates using an Echo 555 Liquid Handler (LabCyte). […]
(§2) X-100) for 30 minutes at RT. To stimulate AKT phosphorylation, C5a (complement 5a) anaphylatoxin trifluoroacetate salt (20 nM; Bachem) was added to RAW-264 cells for 3 minutes and anti-human IgM (120 µg/mL; Stratech) was added to JEKO-1 cells for 10 minutes prior to cell lysis. RAW-264 and JEKO-1 cells were then lysed for 30 minutes at RT. Lysates were transferred onto ELISA plates pre-coated with anti-AKT antibody (Cell Signalling #7144) that had previously been blocked with 1% BSA in PBS-T and incubated overnight at 4°C. Plates were then incubated with mouse anti-phosphoAKT Thr308 (Cell Signalling Technology #7144) for 2 hours, followed by an anti-mouse HRP-conjugated antibody (Cell Signalling Technology #7144) for 2 hours. Plates were washed between antibody incubation steps with PBS-T. QuantaBlu substrate working solution […]
(§3) (ThermoScientific #15169) was added to each well according to the manufacturer’s instructions and stop solution was added 60 minutes later. Fluorescence was measured

DNA-PKcs = target: T4, DNA-PKcs (Homo sapiens, UniProt P78527); assay: DNA-PKcs autophosphorylation (pSer2056) ELISA in IR-treated A549 cells; conditions: geometric mean; Supplementary Table 1; read-out: Compound IC50 DNA-PKcs
T4 construct: evaluated in A549 cells following IR by measuring DNA-PKcs autophosphorylation on Ser2056; endogenous in cells; host or cells: A549

PI3Kα = PI3Kα (Homo sapiens, UniProt P42336); assay: PI3K isoform assay, pAKT Thr308 ELISA in BT474 cells; conditions: geometric mean; Supplementary Table 1; read-out: Compound IC50 PI3K (first PI3K line)
PI3Kα, sequence (P42336 187-1068 limits assumed): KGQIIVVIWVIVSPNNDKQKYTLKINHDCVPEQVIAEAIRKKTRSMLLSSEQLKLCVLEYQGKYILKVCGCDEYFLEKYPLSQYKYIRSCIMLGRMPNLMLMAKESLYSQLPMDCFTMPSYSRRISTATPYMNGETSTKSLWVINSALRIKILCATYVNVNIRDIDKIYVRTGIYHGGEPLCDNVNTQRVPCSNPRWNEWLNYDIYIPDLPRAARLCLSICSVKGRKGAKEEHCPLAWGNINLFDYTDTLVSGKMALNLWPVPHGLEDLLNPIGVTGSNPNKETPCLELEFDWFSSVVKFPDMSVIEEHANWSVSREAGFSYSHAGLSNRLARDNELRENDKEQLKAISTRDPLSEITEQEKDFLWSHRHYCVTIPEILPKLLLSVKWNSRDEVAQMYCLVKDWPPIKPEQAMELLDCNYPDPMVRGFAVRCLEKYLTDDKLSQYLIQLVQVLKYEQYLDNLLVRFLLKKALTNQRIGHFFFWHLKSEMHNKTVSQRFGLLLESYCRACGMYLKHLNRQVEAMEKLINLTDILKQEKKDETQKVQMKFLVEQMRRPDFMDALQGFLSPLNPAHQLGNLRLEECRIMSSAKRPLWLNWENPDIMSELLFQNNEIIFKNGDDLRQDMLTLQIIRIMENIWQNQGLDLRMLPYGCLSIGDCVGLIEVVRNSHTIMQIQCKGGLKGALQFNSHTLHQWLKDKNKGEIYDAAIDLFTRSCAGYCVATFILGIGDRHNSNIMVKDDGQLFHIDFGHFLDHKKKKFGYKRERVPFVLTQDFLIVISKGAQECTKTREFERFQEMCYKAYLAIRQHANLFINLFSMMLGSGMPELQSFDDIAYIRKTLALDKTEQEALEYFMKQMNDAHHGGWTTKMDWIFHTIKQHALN
Experimental: as §1
(§4) BT474 and MDA -MB-468 cells were seeded into 384-well plates
(§5) (5600 cells/well) and incubated overnight prior to compound treatment for 2 hours. […]
(§6) Compounds were added to […]
(§7) cells/plates using an Echo 555 Liquid Handler (LabCyte). BT474 and MDA -MB-468 cells were lysed in 25 µL lysis buffer (25 mM Tris-HCl, 3 mM EDTA, 3 mM EGTA, 50 mM NaF, 2 mM Na3VO4, 0.27 M sucrose, 10 mM β-glycerophosphate, 5 mM Na2P2O7, 0.5% Triton […]
(§8) X-100) for 30 minutes at RT. […]
(§9) Lysates were transferred onto ELISA plates pre-coated with anti-AKT antibody (Cell Signalling #7144) that had previously been blocked with 1% BSA in PBS-T and incubated overnight at 4°C. Plates were then incubated with mouse anti-phosphoAKT Thr308 (Cell Signalling Technology #7144) for 2 hours, followed by an anti-mouse HRP-conjugated antibody (Cell Signalling Technology #7144) for 2 hours. Plates were washed between antibody incubation steps with PBS-T. QuantaBlu substrate working solution […]
as §3

PI3Kβ = target: T5, PI3Kβ (Homo sapiens, UniProt P42338); assay: PI3K isoform assay, pAKT Thr308 ELISA in MDA-MB-468 cells; conditions: geometric mean; Supplementary Table 1; read-out: Compound IC50 PI3K (second PI3K line)
T5 construct: MDA-MB-468 (PI3Kβ); endogenous in cells; host or cells: MDA-MB-468
Experimental: as §1, §4, §5, §6, §7, §8, §9, §3

PI3Kδ = target: T6, PI3Kδ (Homo sapiens, UniProt O00329); assay: PI3K isoform assay, pAKT Thr308 ELISA in JEKO-1 cells; conditions: geometric mean; Supplementary Table 1; read-out: Compound IC50 PI3K (fourth PI3K line)
T6 construct: JEKO-1 (PI3Kδ) cells; endogenous in cells; host or cells: JEKO-1
Experimental: as §1
as §7, with “RAW-264 and JEKO-1 cells were seeded directly into 384-well plates containing compounds (1 x 10^5 cells/well) and incubated for 1 hour. Compounds were added to cells/plates” for “cells/plates”
as §8
as §2, with “3” for “X-100) for 30 minutes at RT. To stimulate AKT phosphorylation, C5a (complement 5a) anaphylatoxin trifluoroacetate salt (20 nM; Bachem) was added to RAW-264 cells for 3”, “hours.” for “hours. Plates were washed between antibody incubation steps with PBS-T. QuantaBlu substrate working solution”
as §3

mTOR = target: T7, mTOR (Homo sapiens, UniProt P42345); assay: mTOR (pAKT Ser473) imaging assay in MDA-MB-468 cells; conditions: geometric mean; Supplementary Table 1; read-out: Compound IC50 mTOR
T7 construct: mTOR (pAKT Ser473) in MDA-MB-468; endogenous in cells; host or cells: MDA-MB-468

[1] = tested on: secondary pharmacology target; assay: Cellular selectivity across secondary pharmacology targets; conditions: versus cellular DNA-PKcs

T1 sequence (Q13315 whole entry): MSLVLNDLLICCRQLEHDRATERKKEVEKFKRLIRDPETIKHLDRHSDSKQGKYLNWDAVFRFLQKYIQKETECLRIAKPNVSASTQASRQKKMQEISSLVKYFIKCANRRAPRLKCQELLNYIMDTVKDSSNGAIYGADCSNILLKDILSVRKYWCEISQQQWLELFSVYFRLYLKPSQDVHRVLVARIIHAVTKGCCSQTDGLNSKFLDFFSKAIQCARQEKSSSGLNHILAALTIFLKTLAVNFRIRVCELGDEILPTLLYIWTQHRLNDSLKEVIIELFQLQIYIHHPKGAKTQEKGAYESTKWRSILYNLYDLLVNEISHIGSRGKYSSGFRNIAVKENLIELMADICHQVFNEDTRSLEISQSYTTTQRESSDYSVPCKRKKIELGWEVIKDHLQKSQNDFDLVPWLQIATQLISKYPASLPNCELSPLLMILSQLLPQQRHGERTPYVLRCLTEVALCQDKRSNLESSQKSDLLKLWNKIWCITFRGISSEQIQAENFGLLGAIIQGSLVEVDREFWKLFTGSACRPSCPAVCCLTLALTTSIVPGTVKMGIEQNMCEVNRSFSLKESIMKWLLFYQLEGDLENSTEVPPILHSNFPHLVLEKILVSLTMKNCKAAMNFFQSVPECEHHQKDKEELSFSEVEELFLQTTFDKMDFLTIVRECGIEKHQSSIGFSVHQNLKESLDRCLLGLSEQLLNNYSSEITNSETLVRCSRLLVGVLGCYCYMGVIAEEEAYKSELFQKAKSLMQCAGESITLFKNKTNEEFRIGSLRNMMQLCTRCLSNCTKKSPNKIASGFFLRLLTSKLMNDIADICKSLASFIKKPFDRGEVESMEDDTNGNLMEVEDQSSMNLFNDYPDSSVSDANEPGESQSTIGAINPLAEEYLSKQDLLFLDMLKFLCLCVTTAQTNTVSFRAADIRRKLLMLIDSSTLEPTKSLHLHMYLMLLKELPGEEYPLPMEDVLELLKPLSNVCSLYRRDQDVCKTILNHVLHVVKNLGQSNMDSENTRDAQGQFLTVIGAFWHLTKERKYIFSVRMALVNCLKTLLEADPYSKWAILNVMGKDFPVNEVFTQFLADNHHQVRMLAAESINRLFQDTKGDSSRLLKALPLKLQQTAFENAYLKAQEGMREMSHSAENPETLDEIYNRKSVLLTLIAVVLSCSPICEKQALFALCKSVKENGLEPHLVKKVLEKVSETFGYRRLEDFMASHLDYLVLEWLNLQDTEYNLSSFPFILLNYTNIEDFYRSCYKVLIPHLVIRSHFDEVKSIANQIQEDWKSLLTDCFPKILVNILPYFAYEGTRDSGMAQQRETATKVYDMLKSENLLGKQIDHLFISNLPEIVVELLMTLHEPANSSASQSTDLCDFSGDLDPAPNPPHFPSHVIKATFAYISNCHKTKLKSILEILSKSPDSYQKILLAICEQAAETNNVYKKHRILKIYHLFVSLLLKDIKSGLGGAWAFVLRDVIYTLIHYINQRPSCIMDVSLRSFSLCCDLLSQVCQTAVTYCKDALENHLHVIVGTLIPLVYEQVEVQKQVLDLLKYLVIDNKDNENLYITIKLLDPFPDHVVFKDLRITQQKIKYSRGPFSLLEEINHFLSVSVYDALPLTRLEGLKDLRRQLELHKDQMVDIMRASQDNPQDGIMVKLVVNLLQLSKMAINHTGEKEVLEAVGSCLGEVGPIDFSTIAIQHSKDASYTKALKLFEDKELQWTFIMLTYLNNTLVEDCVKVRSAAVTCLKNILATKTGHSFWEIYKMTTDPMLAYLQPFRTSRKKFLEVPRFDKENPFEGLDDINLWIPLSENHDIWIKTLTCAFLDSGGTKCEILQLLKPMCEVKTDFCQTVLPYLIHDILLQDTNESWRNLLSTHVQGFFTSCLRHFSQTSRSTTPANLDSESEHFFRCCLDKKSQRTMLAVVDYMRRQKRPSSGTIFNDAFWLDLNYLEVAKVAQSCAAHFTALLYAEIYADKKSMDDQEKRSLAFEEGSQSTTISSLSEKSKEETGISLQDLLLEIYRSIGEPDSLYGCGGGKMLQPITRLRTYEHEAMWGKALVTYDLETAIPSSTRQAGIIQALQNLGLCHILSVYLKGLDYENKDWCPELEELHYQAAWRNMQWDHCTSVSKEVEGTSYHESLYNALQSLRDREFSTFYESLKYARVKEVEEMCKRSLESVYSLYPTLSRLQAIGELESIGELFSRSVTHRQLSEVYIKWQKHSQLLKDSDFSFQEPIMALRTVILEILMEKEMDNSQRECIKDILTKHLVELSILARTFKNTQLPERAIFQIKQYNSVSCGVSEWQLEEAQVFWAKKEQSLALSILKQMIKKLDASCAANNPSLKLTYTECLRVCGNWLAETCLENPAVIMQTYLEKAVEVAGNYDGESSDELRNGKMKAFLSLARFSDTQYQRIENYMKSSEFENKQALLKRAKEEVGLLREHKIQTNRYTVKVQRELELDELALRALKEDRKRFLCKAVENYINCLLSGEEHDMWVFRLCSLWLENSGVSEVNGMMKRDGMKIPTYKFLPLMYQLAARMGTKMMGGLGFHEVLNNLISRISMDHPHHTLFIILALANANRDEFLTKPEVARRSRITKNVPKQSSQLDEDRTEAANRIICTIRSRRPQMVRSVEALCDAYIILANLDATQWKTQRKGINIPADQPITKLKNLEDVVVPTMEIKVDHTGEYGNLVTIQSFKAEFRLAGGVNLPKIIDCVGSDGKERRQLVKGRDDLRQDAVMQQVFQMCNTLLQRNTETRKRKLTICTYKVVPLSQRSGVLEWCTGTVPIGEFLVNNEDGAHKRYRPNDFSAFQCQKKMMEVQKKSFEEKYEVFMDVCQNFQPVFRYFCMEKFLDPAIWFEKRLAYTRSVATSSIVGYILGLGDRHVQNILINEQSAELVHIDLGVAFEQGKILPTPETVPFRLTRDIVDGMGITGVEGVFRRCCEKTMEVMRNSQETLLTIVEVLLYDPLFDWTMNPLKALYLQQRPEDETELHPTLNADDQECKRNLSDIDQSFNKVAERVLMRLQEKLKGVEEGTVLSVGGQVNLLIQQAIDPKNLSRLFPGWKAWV

In the case of `COc1ccc([C@@H](O)c2cc(-c3ncnc4cc(N5CCOCC5)ccc34)c(F)cc2Cl)nn1` [M3814], the IC50 (ATM) is reported as > 30 µM, the IC50 (ATR) is reported as > 30 µM and the IC50 (PI3Kγ) is reported as 1.59 µM.

With `CNC(=O)c1ccnc2c([C@H](C)CNc3cc(-c4cnc(C)nc4)ncn3)cccc12` [M9831/VX-984] the IC50 (DNA-PKcs) was 0.115 µM, the IC50 (ATM) was > 30 µM and the IC50 (ATR) was > 30 µM. For the same compound, the IC50 (PI3Kα) was > 20 µM, the IC50 (PI3Kβ) was > 30 µM and the IC50 (PI3Kγ) was 7.1 µM. The IC50 (PI3Kδ) was > 30 µM and the IC50 (mTOR) was > 30 µM.

In the case of `O=c1cc(N2CCOCC2)oc2c(-c3cccc4c3sc3ccccc34)cccc12` [NU7441], the IC50 (DNA-PKcs) is reported as 0.185 µM, the IC50 (ATM) is reported as > 3.1 µM and the IC50 (ATR) is reported as > 30 µM. The IC50 (PI3Kα) was 7.8 µM, the IC50 (mTOR) was 1.8 µM and the “selectivity in at least one secondary pharmacology target” value [1] was < 10 fold.

For `CCN1CCN(CC(=O)Nc2ccc(-c3cccc4c(=O)cc(N5CCOCC5)oc34)c3sc4ccccc4c23)CC1` [KU-0060648], the IC50 (DNA-PKcs) was 0.055 µM, the IC50 (ATM) was > 30 µM and the IC50 (ATR) was > 30 µM. The IC50 (PI3Kα) was 0.2 µM, the IC50 (mTOR) was 0.15 µM and the “selectivity in at least one secondary pharmacology target” value [1] was < 10 fold.
